Source: US12404260B2, “Pyridine rings containing derivatives as MALT1 inhibitors” (Janssen Pharmaceutica NV, priority 2019, dated 2025)

Legend:
[1] = target: T1, full-length MALT1 protein (Strep-MALT1(1-824)-His) (Homo sapiens, UniProt Q9UDY8); assay: MALT1 Biochemical Protease Assay; details: 10 nM FL MALT1, 200 μM Ac-LRSR-AMC, 50 min pre-incubation, 4 h at RT; read-out: MALT1_Biochemical activity (Ac-LRSR-amc) IC50
T1 construct: full-length MALT1 protein (Strep-MALT1(1-824)-His) purified from baculovirus-infected insect cells; Strep (N); His (C); made in house; host or cells: baculovirus-infected insect cells
T1 sequence (Q9UDY8 1-824): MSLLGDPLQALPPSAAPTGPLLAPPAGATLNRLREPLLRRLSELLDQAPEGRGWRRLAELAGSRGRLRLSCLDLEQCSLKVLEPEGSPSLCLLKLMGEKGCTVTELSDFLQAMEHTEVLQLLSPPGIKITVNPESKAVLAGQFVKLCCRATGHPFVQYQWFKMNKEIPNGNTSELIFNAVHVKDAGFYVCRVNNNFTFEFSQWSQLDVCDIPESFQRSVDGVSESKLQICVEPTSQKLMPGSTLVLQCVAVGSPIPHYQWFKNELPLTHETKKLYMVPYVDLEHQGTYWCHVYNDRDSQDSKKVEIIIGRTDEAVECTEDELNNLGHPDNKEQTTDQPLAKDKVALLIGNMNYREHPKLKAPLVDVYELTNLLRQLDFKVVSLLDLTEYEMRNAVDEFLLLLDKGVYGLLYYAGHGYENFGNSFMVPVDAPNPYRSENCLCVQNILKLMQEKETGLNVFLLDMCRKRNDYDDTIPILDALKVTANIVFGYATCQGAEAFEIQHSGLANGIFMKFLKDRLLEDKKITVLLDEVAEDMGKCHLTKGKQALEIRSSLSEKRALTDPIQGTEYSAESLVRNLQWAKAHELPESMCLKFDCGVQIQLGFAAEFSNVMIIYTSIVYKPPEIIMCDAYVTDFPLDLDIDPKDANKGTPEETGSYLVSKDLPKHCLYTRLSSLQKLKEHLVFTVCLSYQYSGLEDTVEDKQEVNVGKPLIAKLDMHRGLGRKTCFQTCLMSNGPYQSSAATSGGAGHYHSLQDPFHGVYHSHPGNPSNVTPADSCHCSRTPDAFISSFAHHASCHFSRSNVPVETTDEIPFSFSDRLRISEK
Method: MALT1 protease activity was assessed in an in vitro assay using a tetrapeptide as substrate and full-length MALT1 protein (Strep-MALT1(1-824)-His) purified from baculovirus-infected insect cells. The tetrapeptide LRSR is coupled to AMC (7-amino-4-methylcoumarin) and provides a quenched, fluorescent substrate for the MALT1 protease (SM Biochemicals). Cleavage of AMC from the Arginine residue results in an increase in coumarin fluorescence measured at 460 nm (excitation 355 nm). The final assay buffer consisted of 10 nM FL MALT1 protein, 200 μM Ac-LRSR-AMC, 50 mM Tris pH 7.5, 0.6 M Citrate, 1 mM DTT, 1 mM EDTA, 0.05% BSA and 1.5% DMSO. Test compounds were spotted at 50 nL in 100% DMSO per well of a black 384-Proxiplate (Perkin Elmer). Test compound concentrations ranged from 30 μM to 0.5 nM using 11 dilution steps (1:3). Background signal was measured from control wells containing assay buffer without enzyme which functions as low control (LC). High control (HC) values were generated using the reaction with enzyme but no compound treatment. Compounds were pre-incubated with MALT1 enzyme for 50 minutes at RT. Substrate was added subsequently and fluorescence was measured in Labsystems fluoroskan at excitation 355 nm and emission 460 nm to determine time 0. The reaction was subsequently incubated for 4 h at RT and fluorescence was measured. For IC50 calculations, timepoint 0 was subtracted from the 4 h timepoint to correct for any potential autofluorescence of the compounds. The enzyme reaction was linear during the 4 h incubation period. Characterization of the substrate Ac-LRSR-AMC determined the Michaelis constant KM at 200 μM.
IC50 values were calculated using the following formula (Z prime should be >0.5): […]
A best-fit curve was fitted by a minimum sum of squares method to the plot of % Controlmin vs. compound concentration. From this an IC50 value (inhibitory concentration causing 50% inhibition) can be obtained. An estimate of the slope of the plot in terms of the Hill coefficient was also obtained.
Used in “Lexis Dose Response Curve Fitting” Version 1.0.

[2] = tested on: secretion of IL10 by OCI-LY3 ABC-DLBCL cells; assay: Human IL10 Mesoscale assay (OCI-LY3); format: cell-based; details: 24 h incubation, IL10 in supernatant
Method: (§1) NFKB signaling regulates the secretion of multiple cytokines, including IL6 and IL10. Secretion of the cytokines IL6 and IL10 by OCI-LY3 ABC-DLBCL cells was measured using a mesoscale assay. Inhibition of NFKB signaling by MALT1 inhibitors results in a decrease of IL6/10 secretion.
(§2) OCI-LY3 cells were propagated in RPMI-1640 (Sigma Aldrich) supplemented with 10% fetal bovine serum (HyClone), 1 mM sodium pyruvate (Invitrogen), 2 mM L-glutamine (Sigma Aldrich) and 1% PenStrep (Sigma Aldrich). Cell passage number should not exceed 30. Cells should be kept between 0.5-2.5 million cells per mL during culturing and cells should be supplemented every 2-3 days with fresh 50 μM beta-mercaptoethanol. No beta-mercaptoethanol was used during the mesoscale assay.
(§3) For the Mesoscale assay, 100,000 OCI-LY3 cells were seeded per well into black-colored 96-well plates with clear bottom (Corning #3904) and test compounds were added in 9 dilution steps (1:2) ranging from 15 μM to 58.6 nM (final DMSO concentration 0.3%). DMSO control wells were used to determine the maximum signal (High Control (HC)). Treatment with the BTK inhibitor RN486 in a dose range from 30 nM to […] (9 dilutions of 1:2) served as a positive control for NFKB pathway inhibition and was used to determine the maximum inhibition (Low Control (LC)). Compounds and cells were incubated for 24 h at 37° C. and 5% CO2 (assay volume is 150 μL). After 24 h of incubation 50 μL of the supernatant was transferred to a MSD plate (V-Plex Proinflammation Panel 1 (human) kit, Mesoscale (MSD)) and incubated for 2 h with vigorous shaking (600 rpm) at room temperature. Following incubation, plates were washed 3× with PBS+0.05% Tween-20 and 25 μL detection antibody solution (IL6 & IL10 antibodies in diluent 3 (MSD)) was added per well followed by 2 h of incubation with vigorous shaking (600 rpm) at room temperature. After 3× washes with PBS+0.05% Tween-20, plates were incubated with 150 μL 2× Read Buffer T and read on SECTOR imager.

[3] = tested on: secretion of IL6 by OCI-LY3 ABC-DLBCL cells; assay: Human IL6 Mesoscale assay (OCI-LY3); format: cell-based; details: 24 h incubation, IL6 in supernatant
Method: as §1, §2, §3

SMILES | IC50 [1] [nM] | IC50 [2] [nM] | IC50 [3] [nM]
COC(C)c1c(NC(=O)Nc2cnc(-n3nccn3)c(Cl)c2)cncc1OC1CC1 (racemic) [Co. 13] | 850 | – | –
CCOC(=O)COc1cncc(NC(=O)Nc2cnc(-n3nccn3)c(Cl)c2)c1C(C)OC (racemic) [Co. 14] | 3240 | 8130 | 11000
COC(C)c1c(C)cncc1NC(=O)Nc1cnc(-n2nccn2)c(Cl)c1 (racemic) [Co. 20] | 4170 | > 3020 | > 3020
COC(C)c1c(F)cncc1NC(=O)Nc1cnc(-n2nccn2)c(Cl)c1 (racemic) [Co. 21] | 2630 | – | –
COC(C)c1c(NC(=O)Nc2cnc(-n3nccn3)c(Cl)c2)cncc1C1CC1 (racemic) [Co. 28] | 600 | 1100 | 1950
C=C(C)c1cncc(NC(=O)Nc2cnc(-n3nccn3)c(Cl)c2)c1C(C)OC (racemic) [Co. 29] | 980 | 1780 | 1820
COC(C)c1c(NC(=O)Nc2cnc(-n3nccn3)c(Cl)c2)cncc1C(C)C (racemic) [Co. 30] | 2140 | – | –
COC(C)c1c(NC(=O)Nc2cnc(-n3nccn3)c(Cl)c2)cncc1C1COC1 (racemic) [Co. 31] | 1230 | – | –
COC(C)c1c(Br)cncc1NC(=O)Nc1cnc(-n2nccn2)c(Cl)c1 (single isomer, unassigned) [Co. 18] | 100 | 190 | 100
COC(C)c1c(Br)cncc1NC(=O)Nc1cnc(-n2nccn2)c(Cl)c1 (single isomer, unassigned) [Co. 19] | 2750 | – | –
CO[C@@H](C)c1c(NC(=O)Nc2cnc(-n3nccn3)c(Cl)c2)cncc1OCc1ccccc1 [Co. 2] | 2400 | – | –
COC(C)c1c(NC(=O)Nc2cnc(-n3nccn3)c(Cl)c2)cncc1OCc1ccccc1 (stereo not shown) [Co. 3] | > 30200 | – | –
CO[C@@H](C)c1c(O)cncc1NC(=O)Nc1cnc(-n2nccn2)c(Cl)c1 [Co. 5] | 2630 | – | –
COC(C)c1c(O)cncc1NC(=O)Nc1cnc(-n2nccn2)c(Cl)c1 (stereo not shown) [Co. 6] | 24000 | – | –
COc1cncc(NC(=O)Nc2cnc(-n3nccn3)c(Cl)c2)c1C(C)OC (stereo not shown) [Co. 7] | 170 | – | –
CO[C@@H](C)c1c(NC(=O)Nc2cnc(-n3nccn3)c(Cl)c2)cncc1OC(C)C [Co. 10] | 3020 | – | –
COC(C)c1c(NC(=O)Nc2cnc(-n3nccn3)c(Cl)c2)cncc1OCC1CC1 (stereo not shown) [Co. 11] | 1740 | – | –
COC(C)c1c(NC(=O)Nc2cnc(-n3nccn3)c(Cl)c2)cncc1OC1COC1 (stereo not shown) [Co. 12] | 1700 | – | –
COC(C)c1c(NC(=O)Nc2cnc(-n3nccn3)c(Cl)c2)cncc1OCC(N)=O (stereo not shown) [Co. 16] | 1410 | – | –
COC(C)c1c(NC(=O)Nc2cnc(-n3nccn3)c(Cl)c2)cnc(C2CC2)c1Br (stereo not shown) [Co. 47] | 8710 | – | –
COC(C)c1c(Br)cnc(C2CC2)c1NC(=O)Nc1cnc(-n2nccn2)c(Cl)c1 (stereo not shown) [Co. 48] | > 30200 | – | –

Second part, the molecule after the results:

IC50 [1] [nM] | IC50 [2] [nM] | IC50 [3] [nM] | SMILES
1820 | – | – | CNc1cncc(NC(=O)Nc2cnc(-n3nccn3)c(Cl)c2)c1C(C)OC (racemic) [Co. 33]
8710 | 14100 | > 15100 | COC(C)c1c(NC(=O)Nc2cnc(-n3nccn3)c(Cl)c2)cncc1C(N)=O (racemic) [Co. 39]
620 | 1700 | 2340 | COC(C)c1c(Br)c(C)nc(C)c1NC(=O)Nc1cnc(-n2nccn2)c(Cl)c1 (racemic) [Co. 49]
7410 | – | – | COC(C)c1c(Br)cnc(C)c1NC(=O)Nc1cnc(-n2nccn2)c(Cl)c1 (racemic) [Co. 50]
9120 | 5750 | 7240 | COC(C)c1cc(C)ncc1NC(=O)Nc1cnc(-n2nccn2)c(Cl)c1 (racemic) [Co. 106]
10 | 70 | 100 | COC(C)c1c(NC(=O)Nc2cnc(-n3nccn3)c(C(F)(F)F)c2)cnc(C)c1Br (single isomer, unassigned) [Co. 59]
15100 | 6610 | > 15000 | COC(C)c1c(NC(=O)Nc2ccnc(C(F)(F)F)c2)cnc(C)c1Cl (single isomer, unassigned) [Co. 65]
> 30200 | > 15000 | > 15000 | COC(C)c1c(NC(=O)Nc2cnc(C3CC3)c(C(F)(F)F)c2)cnc(C)c1Cl (single isomer, unassigned) [Co. 68]
5890 | 2570 | 5750 | COc1ncc(NC(=O)Nc2cnc(C)c(Br)c2C(C)OC)cc1C#N (single isomer, unassigned) [Co. 98]
60 | 170 | 400 | COC(C)c1c(NC(=O)Nc2cnc(-n3ncc(C(C)O)n3)c(Cl)c2)cnc(C)c1C#N (single isomer, unassigned) [Co. 114]
30 | 40 | 60 | COC(C)c1c(NC(=O)Nc2cnc(-n3nccn3)c(C(F)(F)F)c2)cnc(C(F)F)c1C#N (single isomer, unassigned) [Co. 127]
230 | 210 | 460 | COC(C)c1c(NC(=O)Nc2cnc(-n3nccn3)c(C(F)(F)F)c2)cnc(C(F)F)c1C#N (single isomer, unassigned) [Co. 128]
2000 | – | – | CO[C@@H](C)c1c(NC(=O)Nc2cnc(OC(F)F)c(Cl)c2)cnc(N)c1Cl (single isomer, unassigned) [Co. 135]
2820 | – | – | COC(C)c1c(NC(=O)Nc2cnc(-n3nccn3)c(Cl)c2)cncc1NC(C)C (stereo not shown) [Co. 32]
– | 150 | 320 | CO[C@H](C)c1c(NC(=O)Nc2cnc(OC(F)F)c(Cl)c2)cnc(C)c1C#N [Co. 71]
